From patent publication US11446300B2 (Alexion Pharmaceuticals, Inc., priority 2015, dated 2022)
Read-outs that look alike come from different tables or passages of the source. One block for each compound: values may come before it. Peptide text beside a SMILES is read from it. * marks the point of attachment. Cbz = O=C(OCc1ccccc1)*; CH2F = FC*

Key:
[1] = tested on: Lyl (OCI-Lyl); experiment: Combination synergy, Cell Titer Glo, 72 hours; type: cell-based
Method: (§1) Synergistic anti-tumor activity in DLBCL cell lines was determined using the Cell Titer Glo assay. Briefly, 5,000 cells were plated in 96 well plates in complete tissue culture media. […] Cells were incubated with or without drug for 72 hours in a 37° C. tissue culture incubator prior to evaluation by CellTiter Glo as per the manufacturer protocol (Promega). Synergy was evaluated by calculating combination index score, as described elsewhere (Jacquement et al, Molecular Cancer 2012) following IC50 determination using Prism software. The compounds are commercially available or are made according to synthetic methods known to those skilled in the art.
as §1, with “calculating a” for “calculating”

[2] = tested on: VAL; experiment: Combination synergy, Cell Titer Glo, 72 hours; type: cell-based
Method: as §1
as §1, with “calculating a” for “calculating”

[3] = tested on: DHL10; experiment: Combination synergy, Cell Titer Glo, 72 hours; type: cell-based
Method: as §1
as §1, with “calculating a” for “calculating”

[4] = tested on: DHL6; experiment: Combination synergy, Cell Titer Glo, 72 hours; type: cell-based
Method: as §1
as §1, with “calculating a” for “calculating”

[5] = tested on: DHL4 (SU-DHL4); experiment: Combination synergy, Cell Titer Glo, 72 hours; type: cell-based; conditions: Homo sapiens
Method: as §1
as §1, with “calculating a” for “calculating”

[6] = tested on: CLL primary cells; experiment: CLL cell viability with IL-4/CD40L, PI/Annexin V staining; type: cell-based, human
Method: Viability was assessed using (A) PI/Annexin V staining by flow cytometry. A representative plot is shown or (B) summarized (n=9) showing % of control (PI/Annexin V negative cells). […] Points below the diagonal line represent synergistic interactions, above the line are additive.
Values above the diagonal line represent additive interaction and those under the line are synergistic.

[7] = tested on: TOLEDO; experiment: Combination synergy, Cell Titer Glo, 72 hours; type: cell-based; conditions: Homo sapiens
Method: as §1

[8] = tested on: U2932; experiment: Combination synergy, Cell Titer Glo, 72 hours; type: cell-based; conditions: Homo sapiens
Method: as §1

[9] = tested on: DHL6; experiment: DLBCL cell line viability, CellTiter Glo, ten-point curve; type: cell-based; conditions: read-out: IC50 of Kinase Inhibitor in Cell Titer Glo Assay
Description: (§2) Each IC50 value is an average of at least four replicate experiments.

[10] = tested on: LY10 (OCI-LY10); experiment: as above; type: cell-based; conditions: LY10 cell line; read-out: IC50 of Kinase Inhibitor in Cell Titer Glo Assay
Description: as §2

[11] = tested on: U2932; experiment: as above; type: cell-based; conditions: Homo sapiens, read-out: IC50 of Kinase Inhibitor in Cell Titer Glo Assay
Description: as §2

[12] = tested on: DHL8; experiment: as above; type: cell-based; conditions: read-out: IC50 of Kinase Inhibitor in Cell Titer Glo Assay
Description: as §2

[13] = tested on: DLCL2; experiment: as above; type: cell-based; conditions: read-out: IC50 of Kinase Inhibitor in Cell Titer Glo Assay
Description: as §2

[14] = tested on: DHL10; experiment: as above; type: cell-based; conditions: read-out: IC50 of Kinase Inhibitor in Cell Titer Glo Assay
Description: as §2

[15] = tested on: LY7; experiment: as above; type: cell-based; conditions: read-out: IC50 of Kinase Inhibitor in Cell Titer Glo Assay
Description: as §2

[16] = tested on: RCK8; experiment: as above; type: cell-based; conditions: Homo sapiens; RCK8 cell line; read-out: IC50 of Kinase Inhibitor in Cell Titer Glo Assay
Description: as §2

[17] = tested on: DHL4; experiment: as above; type: cell-based; conditions: read-out: IC50 of Kinase Inhibitor in Cell Titer Glo Assay
Description: as §2

[18] = tested on: DHL5; experiment: as above; type: cell-based; conditions: read-out: IC50 of Kinase Inhibitor in Cell Titer Glo Assay
Description: as §2

[19] = tested on: VAL; experiment: as above; type: cell-based; conditions: read-out: IC50 of Kinase Inhibitor in Cell Titer Glo Assay
Description: as §2

[20] = tested on: LY18; experiment: as above; type: cell-based; conditions: read-out: IC50 of Kinase Inhibitor in Cell Titer Glo Assay
Description: as §2

[21] = tested on: DB; experiment: as above; type: cell-based; conditions: Homo sapiens; DB cell line; read-out: IC50 of Kinase Inhibitor in Cell Titer Glo Assay
Description: as §2

[22] = tested on: LY1; experiment: as above; type: cell-based; conditions: read-out: IC50 of Kinase Inhibitor in Cell Titer Glo Assay
Description: as §2

[23] = tested on: TOLEDO; experiment: as above; type: cell-based; conditions: Homo sapiens; TOLEDO cell line; read-out: IC50 of Kinase Inhibitor in Cell Titer Glo Assay
Description: as §2

[24] = tested on: OCI-Ly18; experiment: Combination synergy, Cell Titer Glo, 72 hours; type: cell-based; conditions: Homo sapiens, OCI-Ly18, 72 h
Method: as §1, with “calculating a” for “calculating”

[25] = tested on: BTK^C481S-transfected TMD8 cells; experiment: Cell count and viability of transfected TMD8 cells; type: cell-based; conditions: 250 nM; 7 days
Description: (§3) Cell transfection, cell count and viability assay: TMD8 cells were transfected with constructs of WT BTK or BTK^C481S mutants using kit V, Program U-13 on Amaxa Nucleofector, according to the manufacturer's protocols (Amaxa, Cologne, Germany). After transfection, the cells were co-cultured with NKTert cells in a 24-well plate for 24 hrs for recovery.

[26] = tested on: WT BTK-transfected TMD8 cells; experiment: Cell count and viability of transfected TMD8 cells; type: cell-based; conditions: 250 nM; 7 days
Description: as §3

[27] = tested on: primary CLL cells; experiment: Apoptosis in primary CLL samples, propidium iodide/Annexin V staining and PARP cleavage; type: cell-based, human; conditions: co-treatment with cerdulatinib

SMILES: CC1(C)CCC(CN2CCN(c3ccc(C(=O)NS(=O)(=O)c4ccc(NCC5CCOCC5)c([N+](=O)[O-])c4)c(Oc4cnc5[nH]ccc5c4)c3)CC2)=C(c2ccc(Cl)cc2)C1 [ABT-199, 4-(4-{[2-(4-chlorophenyl)-4,4-dimethylcyclohex-1-en-1-yl]methyl}piperazin-1-yl)-N-({3-nitro-4-[(tetrahydro-2H-pyran-4-ylmethyl)amino]phenyl}-sulfonyl)-2-(1H-pyrrolo[2,3-b]pyridin-5-yloxy)benzamide, reference compound]
IC50 [1]: 750 nM
IC50 [2]: 4300 nM
IC50 [3]: 3700 nM
IC50 [4]: 23 nM
IC50 ([5]; SU-DHL-4, 72 h, read-out: IC50): 1630 nM
IC50 ([5]; SU-DHL-4, SU-DHL4 cell line, read-out: IC50 value): 1630 nM
CLL cell viability ([6]; IL-4/CD40L for 6 hours, then drug for 24 hours, n=9): protected CLL cells against ABT-199 induced apoptosis
CLL cell viability ([6]; absence of IL-4/CD40L, 24 hours): significantly reduced CLL cell viability
IC50 [7]: 230 nM
IC50 ([8]; U2932, 72 h, read-out: IC50): 490 nM
IC50 ([8]; U2932 cell line, read-out: IC50 value): 490 nM

SMILES: C[C@H](Nc1ncnc2nc[nH]c12)c1cc2cccc(Cl)c2c(=O)n1-c1ccccc1 [IPI-145]
IC50 [9]: 2 nM
IC50 [10]: 5700 nM
IC50 [11]: 27000 nM
IC50 [12]: 45000 nM
IC50 [13]: 5000 nM
IC50 [14]: 4100 nM
IC50 [15]: 25000 nM
IC50 [16]: ≥ 50000 nM
IC50 [17]: 3700 nM
IC50 [18]: 330 nM
IC50 [19]: 21000 nM
IC50 [20]: 960 nM
IC50 [21]: ≥ 50000 nM
IC50 [22]: 1300 nM
IC50 [23]: 18000 nM

SMILES: C=CC(=O)N1CCC[C@@H](n2nc(-c3ccc(Oc4ccccc4)cc3)c3c(N)ncnc32)C1 [Ibrutinib, 1-[(3R)-3-[4-Amino-3-(4-phenoxyphenyl)-1H-pyrazolo[3,4-d]pyrimidin-1-yl]piperidin-1-yl]prop-2-en-1-one, reference compound]
IC50 [1]: 750 nM
IC50 [2]: 4560 nM
IC50 [3]: 1890 nM
IC50 [4]: 310 nM
IC50 ([5]; SU-DHL-4, 72 h, read-out: IC50): 3100 nM
IC50 [24]: 1240 nM
cell growth [25]: less sensitive
cell growth [26]: similarly inhibited

SMILES: CC(NC(=O)C(NC(=O)OCc1ccccc1)C(C)C)C(=O)NC(CC(=O)O)C(=O)CF (stereo not drawn) [ZVAD, reference compound] (Cbz-Val-Ala-Asp-CH2F; configuration not given here)
cerdulatinib induced apoptosis on co-treatment [27]: inhibited

Continued, in another order:

IC50 [10]: 12000 nM
SMILES: CC[C@H](Nc1ncnc2[nH]cnc12)c1nc2cccc(F)c2c(=O)n1-c1ccccc1 [Idelalisib]
IC50 [9]: 30 nM
IC50 [11]: 40000 nM
IC50 [12]: 49000 nM
IC50 [13]: 15000 nM
IC50 [14]: 12000 nM
IC50 [15]: 13000 nM
IC50 [16]: ≥ 50000 nM
IC50 [17]: 12000 nM
IC50 [18]: 1300 nM
IC50 [19]: 29000 nM
IC50 [20]: 3800 nM
IC50 [21]: 42000 nM
IC50 [22]: 4900 nM
IC50 [23]: ≥ 50000 nM

IC50 [10]: 40 nM
SMILES: COc1cccc2c1C(=O)c1c(O)c3c(c(O)c1C2=O)C[C@@](O)(C(=O)CO)C[C@@H]3O[C@H]1C[C@H](N)[C@H](O)[C@H](C)O1 [Doxo, Doxorubicin]
IC50 [9]: 140 nM
IC50 [11]: 350 nM
IC50 [12]: 150 nM
IC50 [13]: 180 nM
IC50 [14]: 300 nM
IC50 [15]: 140 nM
IC50 [16]: 200 nM
IC50 [17]: 100 nM
IC50 [18]: 30 nM
IC50 [19]: 220 nM
IC50 [20]: 60 nM
IC50 [21]: 370 nM
IC50 [22]: 190 nM
IC50 [23]: 440 nM
